Test results published in patent publication US11919932B2, “HMGN partial peptide and cancer therapy using the same” (The University of Tokyo, priority 2018, dated 2024).

Tests used:
[1] = test system: Colon26 large intestine cancer cells; test: Colon26 tumor-bearing mice, HMGN peptide in combination with anti-PD-L1 antibody, tumor volume; assay type: in vivo, mouse; details: for anti-tumor effect compared with Pep1 (FIG. 11) / anti-tumor effect, tumor volume 24 days after tumor implantation (FIG. 11): same molar dose as 300 ng of Pep1; for anti-tumor effect, tumor volume 24 days after tumor implantation (FIG. 11): vs anti-PD-L1 antibody single administration group; for tumor growth (time-dependent change in tumor volume, FIG. 7): Pep1 60 and 300 ng/mouse, other peptides three equimolar doses, common ratio 5 (Pep1core 8 to 200 ng/mouse); for growth of Colon26 solid tumor, tumor volume 26 days after tumor cell implantation (FIG. 5, FIG. 6): peptide equimolar to Pep1 300 ng/mouse (two doses, common ratio 5, for Pep1ΔN2 and Pep1 mutant), vs anti-PD-L1 alone
From the text: (§1) Seven-week-old male BALB/c mice were used in groups of 8 mice, and Colon26 large intestine cancer cells were subcutaneously transplanted into the right flank at 2×10^5 cells/mouse.
(§2) An anti-mouse PD-L1 antibody (clone 10F.9G2) and an anti-mouse CD4 depleting antibody (clone GK1.5) were purchased from BioXcell.
(§3) The HMGN peptide was intraperitoneally administered at a dose described below four times in total at 9, 14, 17 and 20 days after tumor cell implantation. The anti-mouse PD-L1 antibody was intraperitoneally administered at 200 μg/mouse four times in total at 4, 8, 14 and 18 days after tumor cell implantation. The anti-mouse CD4 antibody was intraperitoneally administered at a dose of 200 μg/mouse twice in total at 5 and 9 days after tumor cell implantation. The long diameter and short diameter of the solid tumor were measured every 3 to 4 days, and tumor volume was calculated by the following calculation formula. Tumor volume (mm^3)=(Long diameter; mm)×(Short diameter; mm)^2×0.5236

[2] = test system: Colon26 large intestine cancer cells; test: Colon26 tumor-bearing mice, HMGN peptide single administration, tumor volume; assay type: in vivo, mouse; details: Pep1 alone; vs control group
Description: as §1, §3
A partial fragment (human HMGN1 NBD peptide 1; Pep1, SEQ ID NO: 3) of human HMGN1 (SEQ ID NO: 17) corresponding to mPep1 was prepared and administered to Colon26 tumor-bearing mice alone or in combination with an anti-PD-L1 antibody (200 μg/mouse), and the anti-tumor effect was investigated.

[3] = test system: Colon26 large intestine cancer cells; test: Colon26 tumor-bearing mice, HMGN peptide in combination with anti-CD4 antibody, tumor volume; assay type: in vivo; details: Pep1 800 ng/mouse + anti-CD4 antibody 200 μg/mouse
From the text: as §1, §2, §3
The partial peptide of human HMGN1, Pep1 (800 ng/mouse), was administered to Colon26 tumor-bearing mice in combination with an anti-CD4 antibody (200 μg/mouse), and the anti-tumor effect was investigated.

[4] = + anti-PD-L1 antibody 200 μg/mouse

For “HMGN5 NBD-peptide (GQGDMRQEPKRRSARLSAMLVPVTPEVKPKRTSSSRKMKTKSD; Human HMGN5 NBD-peptide (N5Pep)) [PepN5, partial region containing NBD of human HMGN5]”, the “anti-tumor effect compared with Pep1 (FIG. 11)” value ([1]; + anti-PD-L1 antibody) was “at the same level as Pep1” and the “anti-tumor effect, tumor volume 24 days after tumor implantation (FIG. 11)” value ([1]; + anti-PD-L1 antibody) was “significant anti-tumor effects”.
“Human HMGN1 NBD-peptide 1 (SSAEGAAKEEPKRRSARLSAKPPAKVEAKPKKAAAKD; Human HMGN1 NBD-peptide 1 (Pep1))” was tested, and the “anti-tumor effect (FIG. 3)” value ([1]; 3 ng/mouse and 30 ng/mouse, + anti-PD-L1 antibody) was “effective”, the “tumor growth (time-dependent change in tumor volume, FIG. 7)” value [1, 4] was “synergistically suppressed tumor growth” and the “tumor growth (FIG. 3, FIG. 4)” value ([1]; Pep1 + anti-PD-L1 antibody 200 μg/mouse) was “synergistically suppressed tumor growth”. The “potency difference in the anti-tumor action between PepO and Pep1” value ([1]; both + anti-PD-L1 antibody) was ≥ 300 times, the “growth of Colon26 solid tumor, tumor volume 26 days after tumor cell implantation (FIG. 5, FIG. 6)” value (“growth of Colon26 solid tumor … (FIG. 5, FIG. 6)” below) [1, 4] was “significantly suppressed” and the “growth of Colon26 solid tumor, tumor volume 23 days after tumor implantation (FIG. 3)” value [2] was “significantly suppressed growth of Colon26 solid tumor in a dose-dependent manner”. The “Colon26 solid tumor growth (FIG. 12, FIG. 13; tumor volume 24 days after implantation)” value [3] was “synergistically suppressed Colon26 solid tumor growth”.
“Human HMGN1 NBD-peptide 1 core (EPKRRSARLSAKPPAKVEAKPKK; Human HMGN1 NBD-peptide1 core (Pep1core)) [10th to 32nd residues of Pep1]” was tested, and the “tumor growth (time-dependent change in tumor volume, FIG. 7)” value [1, 4] was “suppressed in a dose-dependent manner” and the “tumor volume 27 days after implantation, difference from anti-PD-L1 antibody single administration group (FIG. 8)” value ([1]; doses of 40 and 200 ng/mouse, + anti-PD-L1 antibody) was “significant difference was observed”.
With “Human HMGN1 NBD-peptide 1 mutant (SAEGAAKEEPKDDSADLSAKPPAKVEAKPKKAAAKD; Human HMGN1 NBD-peptide 1 mutant (Pep1 mutant)) [R→D mutant of Pep1, N-terminal 1 residue removed]” the “growth of Colon26 solid tumor … (FIG. 5, FIG. 6)” value [1, 4] was “same anti-tumor action as Pep1”.
“Human HMGN1 NBD-peptide 1 Δ C1 (SSAEGAAKEEPKRRSARLSAKPPAKVEAKPKK; Human HMGN1 NBD-peptide 1 delta-C1 (Pep1 delta-C1)) [Pep1ΔC1, C-terminal 5 residues of Pep1 removed]” was tested, and the “complete regression of solid tumors” value ([1]; dose of 53 ng, + anti-PD-L1 antibody) was 1 case, the “complete regression of solid tumors” value ([1]; doses of 11 and 265 ng/mouse, + anti-PD-L1 antibody) was 3 cases out of 8 cases and the “growth of Colon26 solid tumor … (FIG. 5, FIG. 6)” value [1, 4] was “significantly suppressed”.
With “Human HMGN1 NBD-peptide 1 Δ C2 (SSAEGAAKEEPKRRSARLSAKPPAKVEA; Human HMGN1 NBD-peptide 1 delta-C2 (Pep1 delta-C2)) [Pep1ΔC2, C-terminal 9 residues of Pep1 removed]” the “growth of Colon26 solid tumor … (FIG. 5, FIG. 6)” value [1, 4] was “ineffective”.
For “Human HMGN1 NBD-peptide 1 Δ C (SSAEGAAKEEPKRRSARLSAKPPA; Human HMGN1 NBD-peptide 1 delta-C (Pep1 delta-C)) [Pep1 ΔC, C-terminal 13 residues of Pep1 removed]”, the “growth of Colon26 solid tumor … (FIG. 5, FIG. 6)” value [1, 4] was “anti-tumor effect of the peptide was lost”.
“Human HMGN1 NBD-peptide 1 Δ N1 (AAKEEPKRRSARLSAKPPAKVEAKPKKAAAKD; Human HMGN1 NBD-peptide 1 delta-N1 (Pep1 delta-N1)) [Pep1ΔN1, N-terminal 5 residues of Pep1 removed]” was tested, and the “Colon26 solid tumor growth (FIG. 5, FIG. 6)” value ([1]; doses of 53 and 267 ng/mouse, + anti-PD-L1 antibody 200 μg/mouse) was “significantly suppressed”.
For “Human HMGN1 NBD-peptide 1 Δ N2 (EPKRRSARLSAKPPAKVEAKPKKAAAKD; Human HMGN1 NBD-peptide 1 delta-N2 (Pep1 delta-N2)) [Pep1ΔN2, N-terminal 9 residues of Pep1 removed]”, the “tumor growth (time-dependent change in tumor volume, FIG. 7)” value [1, 4] was “synergistic effect”, the “solid tumors completely regressed” value ([1]; dose of 9.4 ng/mouse, + anti-PD-L1 antibody) was 4 cases out of 8 cases and the “growth of Colon26 solid tumor … (FIG. 5, FIG. 6)” value [1, 4] was “similarly suppressed solid tumors”.
With “Human HMGN1 NBD-peptide 1 Δ N3 (SARLSAKPPAKVEAKPKKAAAKD; Human HMGN1 NBD-peptide 1 delta-N3 (Pep1 delta-N3)) [Pep1ΔN3, N-terminal 14 residues of Pep1 removed]” the “growth of Colon26 solid tumor … (FIG. 5, FIG. 6)” value [1, 4] was “ineffective”.
For “Human HMGN1 peptide O (KEEPKRRSARLSAKPPAKVEAKPKKAAAKDKSSDKK; Human HMGN1 peptide O (PepO)) [known HMGN peptide of U.S. Pat. No. 8,227,417, reference compound]”, the “complete regression of solid tumors” value ([1]; 954 ng/mouse, + anti-PD-L1 antibody 200 μg/mouse) was 3 mice, the “anti-tumor effect, tumor volume 24 days after tumor implantation (FIG. 9, FIG. 10)” value ([1]; dose of 318 ng/mouse (equimolar to Pep1 300 ng/mouse), + anti-PD-L1 antibody 200 μg/mouse) was “no anti-tumor effect” and the “tumor growth, tumor volume 24 days after tumor implantation (FIG. 9, FIG. 10)” value ([1]; triple dose of 954 ng/mouse, + anti-PD-L1 antibody 200 μg/mouse) was “significantly suppressed tumor growth”.
Human HMGN2 NBD-peptide [PepN2] was tested, and the “anti-tumor effect compared with Pep1 (FIG. 11)” value ([1]; + anti-PD-L1 antibody) was “at the same level as Pep1” and the “anti-tumor effect, tumor volume 24 days after tumor implantation (FIG. 11)” value ([1]; + anti-PD-L1 antibody) was “significant anti-tumor effects”.
For Human HMGN3 NBD-peptide [PepN3], the “anti-tumor effect, tumor volume 24 days after tumor implantation (FIG. 11)” value ([1]; + anti-PD-L1 antibody) was “no anti-tumor effect”.
Human HMGN4 NBD-peptide [PepN4] was tested, and the “anti-tumor effect compared with Pep1 (FIG. 11)” value ([1]; + anti-PD-L1 antibody) was “at the same level as Pep1” and the “anti-tumor effect, tumor volume 24 days after tumor implantation (FIG. 11)” value ([1]; + anti-PD-L1 antibody) was “significant anti-tumor effects”.
For “mouse HMGN1 NBD-peptide 2 (VQIKGKRGAKGKQADVADQQTTELPAENGETENQSPASEE; mouse HMGN1 NBD-peptide 2 (mPep2)) [region at the C-terminal side of mouse HMGN1 NBD]”, the “tumor volume 24 days after Colon26 tumor cell implantation (FIG. 2)” value ([1]; doses of 30, 300 ng/mouse (mPep2 same molar number), + anti-PD-L1 antibody, vs control group) was “ineffective” and the “tumor growth (time-dependent change in tumor volume, FIG. 1)” value ([1]; mPep1 30 or 300 ng/mouse, mPep2 33 or 330 ng/mouse, i.p. four times, + anti-PD-L1 antibody 200 μg/mouse) was “no combined effect”.
